Reference: patent publication US20260365682A1, “MODULATORS OF TNF-ALPHA ACTIVITY” (Forward Therapeutics, Inc., priority 2022, published 2026)

Target: T1, TNF-α (Homo sapiens, UniProt P01375)
T1 construct: purchased R&D 210-TA-020/CF
Assay: TNF-α Induced HEK Blue Cellular Assay (secreted alkaline phosphatase expression, QUANTI-Blue)
Assay type: cell-based
Details: HEK Blue TNFα reporter cells; TNF-α 100 μg/ml; 24 hrs at 37° C.; inhibition of secreted alkaline phosphatase; read-out: IC50 value
Method in brief: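 Compound was serially diluted from […] to 0.5 nM final, then incubated with 10,000 HEK Blue TNFα reporter cells per well and […] TNF-α for 24 h at 37° C. SEAP output was read by QUANTI-Blue absorbance at 620 nm. Inhibition was background-corrected against DMSO controls with and without stimulation, and IC50 was fitted with a 4-parameter logistic equation.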

T1 sequence (P01375 77-233 limits assumed): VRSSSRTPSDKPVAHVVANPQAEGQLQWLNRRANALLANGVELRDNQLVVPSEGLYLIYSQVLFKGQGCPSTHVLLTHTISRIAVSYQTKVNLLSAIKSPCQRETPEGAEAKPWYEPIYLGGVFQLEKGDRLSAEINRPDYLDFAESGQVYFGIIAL

IC50 [nM]	Compound
< 100	[2H]C([2H])([2H])N1C(=O)c2cccc(OC(F)F)c2[C@H]2C[C@@H]1c1nc3ccc(C#CC4CN(CC)C4)cc3n12 [Example 118, (7R,14R)-1-(difluoromethoxy)-11-((1-ethylazetidin-3-yl)ethynyl)-6-(methyl-d3)-6,7-dihydro-7,14-methanobenzo[f]benzo[4,5]imidazo[1,2-a][1,4]diazocin-5(14H)-one]
10000 to 30000	[2H]C([2H])([2H])N1C(=O)c2cccc(OC(F)F)c2[C@H]2C[C@@H]1c1nc3ccc(C#CCNC(C)(C)C)cc3n12 [Example 70, (7R,14R)-11-(3-(tert-butylamino)prop-1-yn-1-yl)-1-(difluoromethoxy)-6-(methyl-d3)-6,7-dihydro-7,14-methanobenzo[f]benzo[4,5]imidazo[1,2-a][1,4]diazocin-5(14H)-one]
< 100	[2H]C([2H])([2H])N1C(=O)c2cccc(OC(F)F)c2[C@H]2C[C@@H]1c1nc3ccc(C#CCC(O)C(C)O)cc3n12 (single isomer, unassigned) [Example 245, (7R,14R)-1-(difluoromethoxy)-11-((4S or 4R,5S or 5R)-4,5-dihydroxyhex-1-yn-1-yl)-6-(methyl-d3)-6,7-dihydro-7,14-methanobenzo[f]benzo[4,5]imidazo[1,2-a][1,4]diazocin-5(14H)-one]
100 to 1000	[2H]C([2H])([2H])N1C(=O)c2cccc(OC(F)F)c2[C@H]2C[C@@H]1c1nc3ccc(C#CC4(C)CCOC4)cc3n12 (stereo partly drawn) [Example 212, (7R,14R)-1-(difluoromethoxy)-6-(methyl-d3)-11-((3-methyltetrahydrofuran-3-yl)ethynyl)-6,7-dihydro-7,14-methanobenzo[f]benzo[4,5]imidazo[1,2-a][1,4]diazocin-5(14H)-one]
< 100	[2H]C([2H])([2H])N1C(=O)c2cccc(OC(F)F)c2[C@H]2C[C@@H]1c1nc3ccc(C#CCOC(C)CO)cc3n12 (stereo partly drawn) [Example 72, (7R,14R)-1-(difluoromethoxy)-11-(3-((1-hydroxypropan-2-yl)oxy)prop-1-yn-1-yl)-6-(methyl-d3)-6,7-dihydro-7,14-methanobenzo[f]benzo[4,5]imidazo[1,2-a][1,4]diazocin-5(14H)-one]
< 100	[2H]C([2H])([2H])N1C(=O)c2cccc(OC(F)F)c2[C@H]2C[C@@H]1c1nc3ccc(C#CCCC(F)F)cc3n12 [Example 132, (7R,14R)-1-(difluoromethoxy)-11-(5,5-difluoropent-1-yn-1-yl)-6-(methyl-d3)-6,7-dihydro-7,14-methanobenzo[f]benzo[4,5]imidazo[1,2-a][1,4]diazocin-5(14H)-one]
< 100	[2H]C([2H])([2H])N1C(=O)c2cccc(OC(F)F)c2[C@H]2C[C@@H]1c1nc3ccc(C#CC4CC(C)(O)C4)cc3n12 (stereo partly drawn) [Example 177, (7R,14R)-1-(difluoromethoxy)-11-((3-hydroxy-3-methylcyclobutyl)ethynyl)-6-(methyl-d3)-6,7-dihydro-7,14-methanobenzo[f]benzo[4,5]imidazo[1,2-a][1,4]diazocin-5(14H)-one]
100 to 1000	[2H]C([2H])([2H])N1C(=O)c2cccc(OC(F)F)c2[C@H]2C[C@@H]1c1nc3ccc(C#CC4CCCCO4)cc3n12 (stereo partly drawn) [Example 49, (7R,14R)-1-(difluoromethoxy)-6-(methyl-d3)-11-((tetrahydro-2H-pyran-2-yl)ethynyl)-6,7-dihydro-7,14-methanobenzo[f]benzo[4,5]imidazo[1,2-a][1,4]diazocin-5(14H)-one]
< 100	[2H]C([2H])([2H])N1C(=O)c2cccc(OC(F)F)c2[C@H]2C[C@@H]1c1nc3ccc(C#CC4(C)CCCN(C(C)=O)C4)cc3n12 (stereo partly drawn) [Example 225, (7R,14R)-11-((1-acetyl-3-methylpiperidin-3-yl)ethynyl)-1-(difluoromethoxy)-6-(methyl-d3)-6,7-dihydro-7,14-methanobenzo[f]benzo[4,5]imidazo[1,2-a][1,4]diazocin-5(14H)-one]
< 100	[2H]C([2H])([2H])N1C(=O)c2cccc(OC(F)F)c2[C@H]2C[C@@H]1c1nc3ccc(C#CC4CCCNC4)cc3n12 (stereo partly drawn) [Example 60, (7R,14R)-1-(difluoromethoxy)-6-(methyl-d3)-11-(piperidin-3-ylethynyl)-6,7-dihydro-7,14-methanobenzo[f]benzo[4,5]imidazo[1,2-a][1,4]diazocin-5(14H)-one]
< 100	[2H]C([2H])([2H])N1C(=O)c2cccc(OC(F)F)c2[C@H]2C[C@@H]1c1nc3ccc(C#CCCCCO)cc3n12 [Example 92, (7R,14R)-1-(difluoromethoxy)-11-(6-hydroxyhex-1-yn-1-yl)-6-(methyl-d3)-6,7-dihydro-7,14-methanobenzo[f]benzo[4,5]imidazo[1,2-a][1,4]diazocin-5(14H)-one]
< 100	[2H]C([2H])([2H])N1C(=O)c2cccc(OC(F)F)c2[C@H]2C[C@@H]1c1nc3ccc(C#CC4(F)CN(C5COC5)C4)cc3n12 [Example 252, (7R,14R)-1-(difluoromethoxy)-11-((3-fluoro-1-(oxetan-3-yl)azetidin-3-yl)ethynyl)-6-(methyl-d3)-6,7-dihydro-7,14-methanobenzo[f]benzo[4,5]imidazo[1,2-a][1,4]diazocin-5(14H)-one]

The next lines start with the compound.

Compound	IC50 [nM]
[2H]C([2H])([2H])N1C(=O)c2cccc(OC(F)F)c2[C@H]2C[C@@H]1c1nc3ccc(C#CCN(CC)CC)cc3n12 [Example 62, (7R,14R)-11-(3-(diethylamino)prop-1-yn-1-yl)-1-(difluoromethoxy)-6-(methyl-d3)-6,7-dihydro-7,14-methanobenzo[f]benzo[4,5]imidazo[1,2-a][1,4]diazocin-5(14H)-one]	< 100
[2H]C([2H])([2H])N1C(=O)c2cccc(OC(F)F)c2[C@H]2C[C@@H]1c1nc3ccc(C#CC4(C)CN(C(=O)C(C)(C)O)C4)cc3n12 [Example 156, (7R,14R)-1-(difluoromethoxy)-11-((1-(2-hydroxy-2-methylpropanoyl)-3-methylazetidin-3-yl)ethynyl)-6-(methyl-d3)-6,7-dihydro-7,14-methanobenzo[f]benzo[4,5]imidazo[1,2-a][1,4]diazocin-5(14H)-one]	100 to 1000
[2H]C([2H])([2H])N1C(=O)c2cccc(OC(F)F)c2[C@H]2C[C@@H]1c1nc3c(F)cc(C#CC)cc3n12 [Example 109, (7R,14R)-1-(difluoromethoxy)-9-fluoro-6-(methyl-d3)-11-(prop-1-yn-1-yl)-6,7-dihydro-7,14-methanobenzo[f]benzo[4,5]imidazo[1,2-a][1,4]diazocin-5(14H)-one]	100 to 1000
[2H]C([2H])([2H])N1C(=O)c2cccc(OC(F)F)c2[C@H]2C[C@@H]1c1nc3ccc(C#CCCCN4CCOCC4)cc3n12 [Example 114, (7R,14R)-1-(difluoromethoxy)-6-(methyl-d3)-11-(5-morpholinopent-1-yn-1-yl)-6,7-dihydro-7,14-methanobenzo[f]benzo[4,5]imidazo[1,2-a][1,4]diazocin-5(14H)-one]	< 100
[2H]C([2H])([2H])N1C(=O)c2cccc(OC(F)F)c2[C@H]2C[C@@H]1c1nc3ccc(C#Cc4cncnc4)cc3n12 [Example 11, (7R,14R)-1-(difluoromethoxy)-6-(methyl-d3)-11-(pyrimidin-5-ylethynyl)-6,7-dihydro-7,14-methanobenzo[f]benzo[4,5]imidazo[1,2-a][1,4]diazocin-5(14H)-one]	< 100
[2H]C([2H])([2H])N1C(=O)c2cccc(OC(F)F)c2[C@H]2C[C@@H]1c1nc3ccc(C#CC4(C)CN(C(=O)C5(C)CC5)C4)cc3n12 [Example 165, (7R,14R)-1-(difluoromethoxy)-6-(methyl-d3)-11-((3-methyl-1-(1-methylcyclopropane-1-carbonyl)azetidin-3-yl)ethynyl)-6,7-dihydro-7,14-methanobenzo[f]benzo[4,5]imidazo[1,2-a][1,4]diazocin-5(14H)-one]	100 to 1000
[2H]C([2H])([2H])N1C(=O)c2cccc(OC(F)F)c2[C@H]2C[C@@H]1c1nc3ccc(C#CC4(C)CN(CC(F)(F)F)C4)cc3n12 [Example 178, (7R,14R)-1-(difluoromethoxy)-6-(methyl-d3)-11-((3-methyl-1-(2,2,2-trifluoroethyl)azetidin-3-yl)ethynyl)-6,7-dihydro-7,14-methanobenzo[f]benzo[4,5]imidazo[1,2-a][1,4]diazocin-5(14H)-one]	100 to 1000
[2H]C([2H])([2H])N1C(=O)c2cccc(OC(F)F)c2[C@H]2C[C@@H]1c1nc3ccc(C#Cc4cnc(C(C)(C)O)nc4)cc3n12 [Example 16, (7R,14R)-1-(difluoromethoxy)-11-((2-(2-hydroxypropan-2-yl)pyrimidin-5-yl)ethynyl)-6-(methyl-d3)-6,7-dihydro-7,14-methanobenzo[f]benzo[4,5]imidazo[1,2-a][1,4]diazocin-5(14H)-one]	< 100
[2H]C([2H])([2H])N1C(=O)c2cccc(OC(F)F)c2[C@H]2C[C@@H]1c1nc3ccc(C#Cc4cnnn4C)cc3n12 [Example 12, (7R,14R)-1-(difluoromethoxy)-6-(methyl-d3)-11-((1-methyl-1H-1,2,3-triazol-5-yl)ethynyl)-6,7-dihydro-7,14-methanobenzo[f]benzo[4,5]imidazo[1,2-a][1,4]diazocin-5(14H)-one]	1000 to 10000
[2H]C([2H])([2H])N1C(=O)c2cccc(OC(F)F)c2[C@H]2C[C@@H]1c1nc3ccc(C#CCOC4CCN(C(=O)OC(C)(C)C)CC4)cc3n12 [Example 116, tert-butyl 4-((3-((7R,14R)-1-(difluoromethoxy)-6-(methyl-d3)-5-oxo-5,6,7,14-tetrahydro-7,14-methanobenzo[f]benzo[4,5]imidazo[1,2-a][1,4]diazocin-11-yl)prop-2-yn-1-yl)oxy)piperidine-1-carboxylate]	1000 to 10000
[2H]C([2H])([2H])N1C(=O)c2cccc(OC(F)F)c2[C@H]2C[C@@H]1c1nc3ccc(C#Cc4cnn(CCO)c4)cc3n12 [Example 10, (7R,14R)-1-(difluoromethoxy)-11-((1-(2-hydroxyethyl)-1H-pyrazol-4-yl)ethynyl)-6-(methyl-d3)-6,7-dihydro-7,14-methanobenzo[f]benzo[4,5]imidazo[1,2-a][1,4]diazocin-5(14H)-one]	< 100
